# According to ChEMBL document CHEMBL1201862, “PubChem BioAssay data set” (2004):
#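 Briefly, cells in 96-well plates were exposed to five compound concentrations for 48 h, and endpoints were estimated by linear interpolation. Abbreviation: GI50, concentration required for 50% inhibition of growth.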 The source made the active and inactive calls. No stated cut-off is given here; in the data, active = GI50 up to about 1.1 µM and inactive = higher.
# How the values were obtained:
# Assay in all cases: NCI anticancer screen, dose series, 48 h
# HCT-15 = tested on: HCT-15
# HL-60 = tested on: HL-60
# HOP-92 = tested on: HOP-92
# HT-29 = tested on: HT-29
# IGROV-1 = tested on: IGROV-1
# LOX IMVI = tested on: LOX IMVI
# Malme-3M = tested on: Malme-3M
# NCI-H226 = tested on: NCI-H226
# NCI-H522 = tested on: NCI-H522
# OVCAR-5 = tested on: OVCAR-5
# RPMI-8226 = tested on: RPMI-8226
# RXF 393 = tested on: RXF 393
# SF-295 = tested on: SF-295
# SNB-19 = tested on: SNB-19
# UO-31 = tested on: UO-31
# A498 = tested on: A498
# HOP-62 = tested on: HOP-62
compound,measurement,setting,value
O=C(O)CS [THIOGLYCOLIC ACID],GI50,HCT-15,> 100 µM
same,GI50,HL-60,> 100 µM (inactive)
same,GI50,HOP-92,> 100 µM (inactive)
same,GI50,HT-29,> 100 µM (inactive)
same,GI50,IGROV-1,> 100 µM (inactive)
same,GI50,LOX IMVI,> 100 µM (inactive)
same,GI50,Malme-3M,> 100 µM (inactive)
same,GI50,NCI-H226,> 100 µM (inactive)
same,GI50,NCI-H522,> 100 µM (inactive)
same,GI50,OVCAR-5,> 100 µM (inactive)
same,GI50,RPMI-8226,> 100 µM (inactive)
same,GI50,RXF 393,> 100 µM (inactive)
same,GI50,SF-295,> 100 µM (inactive)
same,GI50,SNB-19,> 100 µM (inactive)
same,GI50,UO-31,> 100 µM (inactive)
CCOC(=O)N1c2c(ccn2C)-c2ccn(C)c2N1C(=O)OCC,GI50,A498,44.1 µM (inactive)
same,GI50,HCT-15,12.9 µM
same,GI50,HL-60,5.09 µM (inactive)
same,GI50,HOP-62,> 100 µM (inactive)
same,GI50,HOP-92,20.6 µM (inactive)
same,GI50,HT-29,15.7 µM (inactive)
same,GI50,IGROV-1,24.9 µM (inactive)
same,GI50,LOX IMVI,12.9 µM (inactive)
same,GI50,Malme-3M,19 µM (inactive)
same,GI50,NCI-H226,19.7 µM (inactive)
same,GI50,NCI-H522,11.3 µM (inactive)
same,GI50,OVCAR-5,17.4 µM (inactive)
same,GI50,RPMI-8226,20.9 µM (inactive)
same,GI50,SF-295,15.3 µM (inactive)
same,GI50,SNB-19,> 10 µM (inactive)
same,GI50,UO-31,19.8 µM (inactive)
CCOc1ccc(NC2=NC(=O)C(CC(=O)Nc3ccc(Cl)cc3Cl)S2)cc1 (stereo unspecified),GI50,A498,68.7 µM (inactive)
same,GI50,HCT-15,> 100 µM
same,GI50,HOP-62,> 100 µM (inactive)
same,GI50,HT-29,> 100 µM (inactive)
same,GI50,IGROV-1,> 100 µM (inactive)
same,GI50,LOX IMVI,> 100 µM (inactive)
same,GI50,Malme-3M,> 100 µM (inactive)
same,GI50,OVCAR-5,> 100 µM (inactive)
same,GI50,RPMI-8226,> 100 µM (inactive)
same,GI50,SF-295,> 100 µM (inactive)
same,GI50,SNB-19,> 100 µM (inactive)
same,GI50,UO-31,> 100 µM (inactive)
O=C(O)CN(c1ccccc1)S(=O)(=O)c1ccc(Cl)cc1,GI50,A498,> 100 µM (inactive)
same,GI50,HCT-15,> 100 µM
same,GI50,HL-60,> 100 µM (inactive)
same,GI50,HOP-92,> 100 µM (inactive)
same,GI50,HT-29,> 100 µM (inactive)
same,GI50,IGROV-1,> 100 µM (inactive)
same,GI50,LOX IMVI,> 100 µM (inactive)
same,GI50,Malme-3M,> 100 µM (inactive)
same,GI50,NCI-H522,> 100 µM (inactive)
same,GI50,OVCAR-5,> 100 µM (inactive)
same,GI50,RPMI-8226,> 100 µM (inactive)
same,GI50,RXF 393,> 100 µM (inactive)
same,GI50,SNB-19,> 100 µM (inactive)
same,GI50,UO-31,> 100 µM (inactive)
CCN1C(=O)C/C(=C\C(C)=O)Nc2ccccc21,GI50,HOP-62,> 100 µM (inactive)
same,GI50,HOP-92,> 100 µM (inactive)
same,GI50,HT-29,> 100 µM (inactive)
same,GI50,IGROV-1,> 100 µM (inactive)
same,GI50,LOX IMVI,> 100 µM (inactive)
same,GI50,Malme-3M,> 100 µM (inactive)
same,GI50,NCI-H226,> 100 µM (inactive)
same,GI50,NCI-H522,> 100 µM (inactive)
same,GI50,OVCAR-5,> 100 µM (inactive)
same,GI50,RXF 393,> 100 µM (inactive)
same,GI50,SF-295,> 100 µM (inactive)
same,GI50,SNB-19,> 100 µM (inactive)
same,GI50,UO-31,> 100 µM (inactive)
C[C@@H]1O[C@@H](O[C@H]2[C@H](Oc3cc(O)c4c(=O)cc(-c5ccc(O)cc5)oc4c3)O[C@H](CO)[C@@H](O)[C@@H]2O)[C@H](O)[C@H](O)[C@H]1O [RHOIFOLIN],GI50,A498,> 100 µM (inactive)
same,GI50,HCT-15,> 100 µM
same,GI50,HL-60,> 100 µM (inactive)
same,GI50,HOP-62,> 100 µM (inactive)
same,GI50,HOP-92,> 100 µM (inactive)
same,GI50,HT-29,> 100 µM (inactive)
same,GI50,IGROV-1,> 100 µM (inactive)
same,GI50,LOX IMVI,> 100 µM (inactive)
same,GI50,Malme-3M,> 100 µM (inactive)
same,GI50,NCI-H522,> 100 µM (inactive)
same,GI50,OVCAR-5,> 100 µM (inactive)
same,GI50,RPMI-8226,> 100 µM (inactive)
same,GI50,SF-295,> 100 µM (inactive)
same,GI50,SNB-19,> 100 µM (inactive)
same,GI50,UO-31,> 100 µM (inactive)
COc1cc2ccc(CC(=O)O)cc2cc1OC,GI50,A498,> 100 µM (inactive)
same,GI50,HCT-15,> 100 µM
same,GI50,HL-60,> 100 µM (inactive)
same,GI50,HOP-62,> 100 µM (inactive)
same,GI50,HT-29,> 100 µM (inactive)
same,GI50,IGROV-1,> 100 µM (inactive)
same,GI50,Malme-3M,> 100 µM (inactive)
same,GI50,NCI-H226,> 100 µM (inactive)
same,GI50,NCI-H522,> 100 µM (inactive)
same,GI50,RPMI-8226,> 100 µM (inactive)
same,GI50,RXF 393,> 100 µM (inactive)
same,GI50,SNB-19,> 100 µM (inactive)
same,GI50,UO-31,> 100 µM (inactive)
CN(C)c1snc2c1c(=O)n(C)c(=O)n2C,GI50,A498,> 100 µM (inactive)
same,GI50,HCT-15,> 100 µM
same,GI50,HL-60,> 100 µM (inactive)
same,GI50,HOP-62,> 100 µM (inactive)
same,GI50,HT-29,> 100 µM (inactive)
same,GI50,IGROV-1,> 100 µM (inactive)
same,GI50,LOX IMVI,> 100 µM (inactive)
same,GI50,Malme-3M,> 100 µM (inactive)
same,GI50,NCI-H226,65.2 µM (inactive)
same,GI50,NCI-H522,> 100 µM (inactive)
same,GI50,OVCAR-5,> 100 µM (inactive)
same,GI50,RPMI-8226,> 100 µM (inactive)
same,GI50,SF-295,> 100 µM (inactive)
same,GI50,SNB-19,> 100 µM (inactive)
same,GI50,UO-31,> 100 µM (inactive)
N=CCCN(CCC=N)c1ccc(/C=C2\CN(NC(=O)c3ccc(Cl)cc3)C(c3ccccc3)=N2)cc1,GI50,A498,> 100 µM (inactive)
same,GI50,HCT-15,> 100 µM
same,GI50,HL-60,> 100 µM (inactive)
same,GI50,HOP-62,> 100 µM (inactive)
same,GI50,HOP-92,> 100 µM (inactive)
same,GI50,HT-29,> 100 µM (inactive)
same,GI50,IGROV-1,> 100 µM (inactive)
same,GI50,LOX IMVI,75 µM (inactive)
same,GI50,Malme-3M,> 100 µM (inactive)
same,GI50,NCI-H226,> 100 µM (inactive)
same,GI50,OVCAR-5,> 100 µM (inactive)
same,GI50,RPMI-8226,26.4 µM (inactive)
same,GI50,SF-295,> 100 µM (inactive)
same,GI50,SNB-19,> 100 µM (inactive)
same,GI50,UO-31,> 100 µM (inactive)
O=C(O)c1ccc(/N=N/c2cc(S(=O)(=O)O)c3cccnc3c2O)cc1,GI50,A498,> 100 µM (inactive)
same,GI50,HCT-15,> 100 µM
same,GI50,HL-60,> 100 µM (inactive)
same,GI50,HOP-62,> 100 µM (inactive)
same,GI50,HOP-92,> 100 µM (inactive)
same,GI50,HT-29,> 100 µM (inactive)
same,GI50,IGROV-1,> 100 µM (inactive)
same,GI50,LOX IMVI,> 100 µM (inactive)
same,GI50,Malme-3M,> 100 µM (inactive)
same,GI50,NCI-H226,> 100 µM (inactive)
same,GI50,OVCAR-5,> 100 µM (inactive)
same,GI50,RPMI-8226,> 100 µM (inactive)
same,GI50,RXF 393,> 100 µM (inactive)
same,GI50,SF-295,> 100 µM (inactive)
same,GI50,SNB-19,> 100 µM (inactive)
same,GI50,UO-31,> 100 µM (inactive)
O=c1c2ccccc2oc2ccccc12.Oc1cccc2cccnc12,GI50,A498,16.8 µM (inactive)
same,GI50,HL-60,0.67 µM (active)
same,GI50,HOP-62,7.43 µM (inactive)
same,GI50,IGROV-1,3.73 µM (inactive)
same,GI50,LOX IMVI,1.49 µM (inactive)
same,GI50,Malme-3M,1.75 µM (inactive)
same,GI50,NCI-H522,12.9 µM (inactive)
same,GI50,RPMI-8226,5.41 µM (inactive)
same,GI50,SF-295,2.23 µM (inactive)
same,GI50,SNB-19,3.36 µM (inactive)
same,GI50,UO-31,2.31 µM (inactive)
O=[N+]([O-])c1cccc(C2=NN(c3ccccc3)C3c4cc(Br)ccc4OCC23)c1 (stereo unspecified),GI50,A498,> 100 µM (inactive)
same,GI50,HL-60,> 100 µM (inactive)
same,GI50,HOP-62,> 100 µM (inactive)
same,GI50,HOP-92,12 µM (inactive)
same,GI50,HT-29,46.1 µM (inactive)
same,GI50,IGROV-1,> 100 µM (inactive)
same,GI50,LOX IMVI,> 100 µM (inactive)
same,GI50,Malme-3M,> 100 µM (inactive)
same,GI50,NCI-H522,97.5 µM (inactive)
same,GI50,OVCAR-5,> 100 µM (inactive)
same,GI50,RPMI-8226,> 100 µM (inactive)
same,GI50,RXF 393,> 100 µM (inactive)
same,GI50,SF-295,> 100 µM (inactive)
same,GI50,SNB-19,> 100 µM (inactive)
same,GI50,UO-31,17.3 µM (inactive)
COC(=O)C1=C(O)c2cc(OC)c(OC)c(OC)c2C(c2ccc3c(c2)OCO3)[C@@H]1C(=O)OC (stereo partly specified),GI50,A498,3.82 µM (inactive)
same,GI50,HCT-15,7.1 µM
same,GI50,HL-60,1.74 µM (inactive)
same,GI50,HOP-62,5.53 µM (inactive)
same,GI50,HOP-92,> 100 µM (inactive)
same,GI50,HT-29,2.84 µM (inactive)
same,GI50,IGROV-1,5.56 µM (inactive)
same,GI50,LOX IMVI,4.43 µM (inactive)
same,GI50,Malme-3M,3.44 µM (inactive)
same,GI50,NCI-H226,8.97 µM (inactive)
same,GI50,OVCAR-5,> 100 µM (inactive)
same,GI50,RPMI-8226,6.62 µM (inactive)
same,GI50,RXF 393,2.29 µM (inactive)
same,GI50,SF-295,2.01 µM (inactive)
same,GI50,UO-31,6.08 µM (inactive)
NC(=O)c1cc(C2OC(CO)C(O)C2O)nn1-c1ccc([N+](=O)[O-])cc1 (stereo unspecified),GI50,A498,> 100 µM (inactive)
same,GI50,HCT-15,> 100 µM
same,GI50,HL-60,> 100 µM (inactive)
same,GI50,HOP-62,> 100 µM (inactive)
same,GI50,HOP-92,> 100 µM (inactive)
same,GI50,HT-29,> 100 µM (inactive)
same,GI50,IGROV-1,> 100 µM (inactive)
same,GI50,LOX IMVI,> 100 µM (inactive)
same,GI50,Malme-3M,> 100 µM (inactive)
same,GI50,NCI-H226,> 100 µM (inactive)
same,GI50,OVCAR-5,> 100 µM (inactive)
same,GI50,RPMI-8226,88.9 µM (inactive)
same,GI50,RXF 393,> 100 µM (inactive)
same,GI50,SF-295,> 100 µM (inactive)
same,GI50,SNB-19,> 100 µM (inactive)
same,GI50,UO-31,> 100 µM (inactive)
